Data published in patent US20220267753A1, “RATIONAL THERAPEUTIC TARGETING OF ONCOGENIC IMMUNE SIGNALING STATES IN MYELOID MALIGNANCIES VIA THE UBIQUITIN CONJUGATING ENZYME UBE2N” (CHILDREN'S HOSPITAL MEDICAL CENTER, priority 2019, published 2022).
Converted amounts (≈) assume the structure as drawn.

Tests used:
[1] = Microsomal stability (mouse liver microsomes); assay type: in vitro ADME, C57/Bl6; settings: for Microsomal Stability % Remaning at T60 / CLint scaled / half-life: C57/Bl6, concentration 1 (mM), matrix 0.5 mg/ml; for CLint scaled: C57/Bl6, mouse; for CLint scaled / half-life: liver microsomes; for half-life: mouse, read-out: Microsomal Stability T ½
[2] = Aqueous solubility; assay type: physicochemical; settings: aqueous medium (not further specified); read-out: Aqueous Solubility, highest soluble concentration
[3] = In vivo preclinical pharmacokinetic analysis; design: species or system C57BL/6 mice; settings: for drug-like / pharmacokinetic properties in words: mice; for AUC(0-inf) / AUC(0-t) / Cmax / Tmax / half-life: mouse, blood, ip, C57BL/6 mice, 20 mg/kg i.p., mean; for half-life: read-out: T½ (converted)
Protocol: (§1) PK studies of UC-764864 and UC-764865 were performed in C57BL/6 mice (18-22 g). 10 mg/kg and 20 mg/kg UC-764864 or UC-764865 was administered through intraperitoneal (i.p.) injection. After dosing, blood samples were collected at 15 min, 30 min, 1 h, 2 h, 4 h, 8 h, 12 h, and 24 h. Samples from three animals were collected at each time point. Approximately 500 μL of blood was collected via orbital vein from each mouse, processed, and analyzed by LC-MS. Standard curves were prepared in blood covering the concentration range of 50-3,0000 ng/mL. Using the data from the standard curves, calibration curves were generated for PK tests. For in vivo toxicity studies, 25 mg/kg UC-764864, UC-764865, 10 mg/kg NSC697923 or vehicle control (methocel 0.5% tween-20 0.2%,0.1% DMSO in water) were administered in B6.SJL-Ptprca Pepcb/BoyJ mice (n=3/group) through i.p. injection. For 2 weeks the mice received 4 doses of each compound. Routine body weight and blood counts were performed. At the end of the study, tissues were harvested, placed in 10% buffered formalin, stained with hematoxylin and eosin (H&E) and examined by a pathologist.

[4] = biological target: T1, UBE2N (Homo sapiens, UniProt P61088); assay: Cellular thermal shift assay (CETSA) in MOLM-13 cells; assay type: binding; design: quantification of Ts, for endogenous UBE2N; endogenous in cells; host or cells: MOLM-13; settings: MOLM-13, 1 hour, heat challenge at Tagg(75); read-out: EC50 of stabilization of UBE2N (CETSA)
T1 sequence (P61088 1-152): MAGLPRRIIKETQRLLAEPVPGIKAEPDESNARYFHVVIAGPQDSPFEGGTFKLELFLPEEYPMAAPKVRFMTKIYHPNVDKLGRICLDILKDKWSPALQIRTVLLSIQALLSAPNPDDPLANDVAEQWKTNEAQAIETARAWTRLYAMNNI
Protocol: CETSA was performed with MOLM-13 cells cultured in RPMI medium supplemented with 10% FBS. For an initial determination of the melting profile of UBE2N, fresh cell lysate prepared in non-denaturing buffer was dispensed into 96-well PCR plate in the above medium (approx. 8000 cells/well/50 μl), then was subjected to temperature gradient (37-60° C.) for 20 min. Subsequently, centrifugation was performed at 14,000 rpm to sediment the unstable protein content. Supernatant was collected and SDS-PAGE gel was run, and immuno-detection was performed for UBE2N using corresponding primary antibody. Band intensity was quantified on LI-COR C-Digit Blot Scanner, and subsequently Tagg(50) and Tagg(75) values were calculated for UBE2N. In a subsequent run, fresh lysates of MOLM-13 cells were treated at various doses with 4-fold dilutions (10, 2.5, 0.62, 0.15, 0.04, 0.01 and 0.002 .tM) of compounds UC-764864 and UC-764865 together with DMSO control, for 1 hour. Samples were then subjected to heat challenge at Tagg(75) for 20 min, and unstable protein was removed by centrifugation step. Following an immuno-blotting step, bands of remaining stable UBE2N were quantified, normalized to loading control and plotted using GraphPad Prism software. EC50 values of engagement for both compounds with UBE2N were subsequently calculated.

[5] = tested on: cord blood CD34+ cells; assay: Colony formation (clonogenic) assay in healthy cells; assay type: cell-based, human
Protocol: In order to determine viability after UBE2N knockdown or inhibition, 1×10^6 AML cells were washed with PBS and mixed with pre-diluted APC-conjugated Annexin V (BD Pharmigen, Franklin Lakes, N.J.) and Propidium iodide (PI) (Invitrogen ThermoFisher 00-6990-42, Waltham, Mass.). Cells were stained at room temperature for 15 minutes and suspended in 0.5 ml of Annexin V incubation buffer (eBiosciences 88-8007-74, San Diego, Calif.) for analysis using a BD FACS Canto System (BD Biosciences, San Jose, Calif.). For UBE2N knockdown experiments, PI−/GFP+ cells were sorted using a MoFlo XDP sorter (Beckman Coulter, Brea, Calif.) and plated in methylcellulose (StemCell Technologies H4236, Vancouver, CA) at 1000 cells/ml in 35 mm culture dishes. For UBE2N inhibition experiments, cell lines were plated in methycellulose (StemCell Technologies H4236, Vancouver, CA) at the indicated concentrations of inhibitor. Cells were incubated at 37° C. and 5% CO2. Colonies were scored after 7 days in culture. For UBE2N or UBE2N C87S overexpression experiments, MOLM-13 cells were transduced with lentivectors overexpressing UBE2N wild type or mutant in the presence of polybrene (8 μg/ml). […] Colonies were scored at 7 days. […] Colonies were manually scored at 14-16 days after plating or counted with STEMVision (StemCell Technologies, Vancouver, CA).

[6] = In vivo toxicity study; settings: 4 doses of 25 mg/kg over 2 weeks, mice
Protocol: as §1

Row | Compound | metabolism in mouse liver microsomes [1] | Microsomal Stability % Remaning at T60 [1] [%] | CLint scaled [1] [mL/min/kg] | half-life [1] [min] | solubility [2] [µM] | drug-like / pharmacokinetic properties in words [3] | AUC(0-inf) [3] [ng·h/mL] | AUC(0-t) [3] [ng·h/mL] | Cmax [3] [ng/mL] | Tmax [3] [min] | half-life [3] [min] | EC50 [4] [nM] | clonogenic potential of cord blood CD34+ cells [5] | body weight, hematologic blood parameters, survival [6] | histological evaluation of several tissues [6] | tolerability after repeated administration [6]
1 | CCc1ccc(C(=O)C=CSc2nc3ccc(C)cc3[nH]2)cc1 [UC-764864, 1-(4-ethylphenyl)-3-[(6-methyl-1H-benzimidazol-2-yl)sulfanyl]prop-2-en-1-one] | readily metabolized | 0.02 | 1090 | 4.99 | 1 (≈ 0.322 µg/mL) | poor pharmacokinetic (PK) properties | 461 | 436 | 446 | 15 | 124 | 2200 | did not affect | – | – | –
2 | COc1ccc(C(=O)C=CSc2nc3ccc(C)cc3[nH]2)cc1 [UC-764865, 1-(4-methoxyphenyl)-3-[(6-methyl-1H-benzimidazol-2-yl)sulfanyl]prop-2-en-1-one] | – | 0.2 | 1100 | 4.97 | 5 (≈ 1.62 µg/mL) | modestly improved solubility, stability, and PK properties | 413 | 346 ± 46.3 | 216 | 19.8 | 528 | 420 | – | did not significantly affect | no evidence of overall tissue toxicity | no abnormalities noted
